# Experimental data reported in patent publication USRE48461E1, “Modulation of androgen receptor expression” (Ionis Pharmaceuticals, Inc., priority 2012, dated 2021).
# Tests used:
# Assay type in all cases: cell-based, human
# C4-2 cells = assay: C4-2 cell proliferation (complete or CSS+DHT medium); settings: 5 days; for Proliferation (% untreated control): C4-2 cells
# Procedure: After a treatment period of 5 days in complete medium or CSS+1 nM DHT medium, the proliferative capacity of the cancer cells was measured with using CellTiter 96® AQueous One Solution or CellTiter-Glo® Cell Proliferation kit (Promega), following the manufacturer's instructions. […] The proliferative capacity of cells cultured in CSS medium without DHT is 17% of untreated control levels.
# LNCaP cells = assay: LNCaP cell proliferation, ASO in combination with MDV3100 (Example 20); settings: for Proliferation (% untreated control) in LNCaP without MDV-3100: 5 days
# Procedure: LNCaP cells were plated at 1,000 cells per well. […] ISIS 549148 was included as a negative control. […] After a treatment period of 5 days, the proliferative capacity of the cancer cells was measured with CellTiter 96® AQueous One or CellTiter-Glo® Solution Cell Proliferation kit (Promega), following the manufacturer's instructions. […]
# [1] = system: prostate-specific antigen (PSA) mRNA; assay: PSA mRNA levels in LMR20 cells; settings: with or without DHT/R1881
# Procedure: LMR20 cells were plated at 1,500 cells per well in phenol red-free medium with CSS. […] Results are presented in Tables 43-45 as mRNA levels expressed as a percentage of the baseline values. mRNA levels may be lowered or increased after treatment.
# full length AR mRNA = assay: Full-length AR RNA in VCaP cells (complete, CSS+DHT medium); settings: RNAiMax, 48 hrs
# Procedure: (§1) Cells were plated at 10,000 cells per well. […] After an incubation period of 48 hrs, RNA levels of full length AR, the V7 variant, PSA and TMPRSS2 were measured.
# (§2) After an incubation period of 48 hrs, RNA levels of full length AR, the V7 variant, PSA and TMPRSS2 were measured. The data is presented in Tables 108 expressed as percent expression of gene levels compared to the untreated control.
# (§3) Cells were plated at 15,000 cells per well and cultured in CSS media for 16 hours. […] After 4 hrs, 1 nM DHT was added. […] After an incubation period of 48 hrs, RNA levels of AR, PSA and TMPRSS2 were measured.
# PSA mRNA = assay: PSA expression in VCaP cells; settings: RNAiMax, 48 hrs
# Procedure: as §1, §2, §3
# TMPRSS2 mRNA [2] = assay: TMPRSS2 expression in VCaP cells; settings: RNAiMax, 48 hrs
# Procedure: as §1, §2, §3
# AR mRNA = AR mRNA levels in LMR20 cells (with/without DHT or R1881); settings: with or without DHT/R1881
# Procedure: LMR20 cells were plated at 1,500 cells per well in phenol red-free medium with CSS.
# TMPRSS2 mRNA [3] = assay: TMPRSS2 expression in 22RV1 cells; settings: RNAiMax, 48 hrs
# Procedure: Cells were plated at 1,000 cells per well. […] After an incubation period of 48 hrs, RNA levels of full length AR, the V7 variant, PSA and TMPRSS2 were measured.
# After an incubation period of 48 hrs, RNA levels of full length AR, the V7 variant, PSA and TMPRSS2 were measured.
# Cells were plated at 2,000 cells per well and cultured in CSS media for 16 hours. […] After 4 hrs, 1 nM DHT was added. […] After an incubation period of 48 hrs, RNA levels of AR, AR V7 variant, PSA and TMPRSS2 were measured.
sequence,measurement,setting,value
"TGATTTAATGGTTGCA [ISIS 569236] (cEt/MOE gapmer chemistry, further chemistry not given here) [targets intron 1]",Proliferation (% untreated control),"C4-2 cells; CSS + DHT medium, 0.04 μM",99 % untreated control
same,Proliferation (% untreated control),"C4-2 cells; CSS + DHT medium, 0.2 μM",99 % untreated control
same,Proliferation (% untreated control),"C4-2 cells; CSS + DHT medium, 1 μM",88 % untreated control
same,Proliferation (% untreated control),"C4-2 cells; CSS + DHT medium, 5.0 μM",51 % untreated control
same,Proliferation (% untreated control),"C4-2 cells; complete medium, 0.04 μM",103 % untreated control
same,Proliferation (% untreated control),"C4-2 cells; complete medium, 0.2 μM",81 % untreated control
same,Proliferation (% untreated control),"C4-2 cells; complete medium, 1 μM",57 % untreated control
same,Proliferation (% untreated control),"C4-2 cells; complete medium, 5.0 μM",58 % untreated control
same,proliferation of C4-2 cells,C4-2 cells; complete medium or CSS+1 nM DHT,reduced proliferation of the cells in a dose dependent manner compared to the control
same,Proliferation (% untreated control) in LNCaP with 0.08 μM MDV-3100,LNCaP cells; ASO dose 0.04 μM + 0.08 μM MDV-3100,74 % untreated control
same,Proliferation (% untreated control) in LNCaP with 0.4 μM MDV-3100,LNCaP cells; ASO dose 0.04 μM + 0.4 μM MDV-3100,48 % untreated control
same,Proliferation (% untreated control) in LNCaP with 2.0 μM MDV-3100,LNCaP cells; ASO dose 0.04 μM + 2.0 μM MDV-3100,41 % untreated control
same,Proliferation (% untreated control) in LNCaP with […] MDV-3100,LNCaP cells; ASO dose 0.04 μM + […] MDV-3100,92 % untreated control
same,Proliferation (% untreated control) in LNCaP without MDV-3100,LNCaP cells; ASO dose 0.04 μM,91 % untreated control
same,Proliferation (% untreated control) in LNCaP with 0.08 μM MDV-3100,LNCaP cells; ASO dose 0.08 μM + 0.08 μM MDV-3100,98 % untreated control
same,Proliferation (% untreated control) in LNCaP with 0.4 μM MDV-3100,LNCaP cells; ASO dose 0.08 μM + 0.4 μM MDV-3100,61 % untreated control
same,Proliferation (% untreated control) in LNCaP with 2.0 μM MDV-3100,LNCaP cells; ASO dose 0.08 μM + 2.0 μM MDV-3100,44 % untreated control
same,Proliferation (% untreated control) in LNCaP with […] MDV-3100,LNCaP cells; ASO dose 0.08 μM + […] MDV-3100,104 % untreated control
same,Proliferation (% untreated control) in LNCaP without MDV-3100,LNCaP cells; ASO dose 0.08 μM,106 % untreated control
same,Proliferation (% untreated control) in LNCaP with 0.08 μM MDV-3100,LNCaP cells; ASO dose 0.2 μM + 0.08 μM MDV-3100,51 % untreated control
same,Proliferation (% untreated control) in LNCaP with 0.4 μM MDV-3100,LNCaP cells; ASO dose 0.2 μM + 0.4 μM MDV-3100,41 % untreated control
same,Proliferation (% untreated control) in LNCaP with 2.0 μM MDV-3100,LNCaP cells; ASO dose 0.2 μM + 2.0 μM MDV-3100,35 % untreated control
same,Proliferation (% untreated control) in LNCaP with […] MDV-3100,LNCaP cells; ASO dose 0.2 μM + […] MDV-3100,58 % untreated control
same,Proliferation (% untreated control) in LNCaP without MDV-3100,LNCaP cells; ASO dose 0.2 μM,60 % untreated control
same,Proliferation (% untreated control) in LNCaP with 0.08 μM MDV-3100,LNCaP cells; ASO dose 1.0 μM + 0.08 μM MDV-3100,31 % untreated control
same,Proliferation (% untreated control) in LNCaP with 0.4 μM MDV-3100,LNCaP cells; ASO dose 1.0 μM + 0.4 μM MDV-3100,27 % untreated control
same,Proliferation (% untreated control) in LNCaP with 2.0 μM MDV-3100,LNCaP cells; ASO dose 1.0 μM + 2.0 μM MDV-3100,23 % untreated control
same,Proliferation (% untreated control) in LNCaP with […] MDV-3100,LNCaP cells; ASO dose 1.0 μM + […] MDV-3100,29 % untreated control
same,Proliferation (% untreated control) in LNCaP without MDV-3100,LNCaP cells; ASO dose 1.0 μM,35 % untreated control
same,synergy with MDV3100,LNCaP cells; LNCaP cells,synergistic with MDV3100
same,"cell proliferation inhibited, combination","LNCaP cells; LNCaP cells, 0.04 μM ASO in combination with 0.08 μM MDV3100",26%
same,"inhibited cell proliferation, ASO alone","LNCaP cells; LNCaP cells, ASO alone at 0.04 μM",9%
same,PSA mRNA levels in LMR20 cells,[1],reduced PSA levels and TMPRSS2 more extensively than the LNA gapmer ISIS 554221 or MDV3100
same,Percent inhibition of full-length AR,"full length AR mRNA; CSS medium, 1.34 nM",23%
same,Percent inhibition of full-length AR,"full length AR mRNA; CSS medium, 4.0 nM",21%
same,Percent inhibition of full-length AR,"full length AR mRNA; CSS medium, 13.4 nM",38%
same,Percent inhibition of full-length AR,"full length AR mRNA; CSS medium, 40 nM",35%
same,Percent inhibition of full-length AR,"full length AR mRNA; complete medium, 1.34 nM",0%
same,Percent inhibition of full-length AR,"full length AR mRNA; complete medium, 4.0 nM",41%
same,Percent inhibition of full-length AR,"full length AR mRNA; complete medium, 13.4 nM",49%
same,Percent inhibition of full-length AR,"full length AR mRNA; complete medium, 40 nM",74%
same,Percent inhibition of PSA expression,"PSA mRNA; CSS + DHT medium, 1.34 nM",8%
same,Percent inhibition of PSA expression,"PSA mRNA; CSS + DHT medium, 4.0 nM",25%
same,Percent inhibition of PSA expression,"PSA mRNA; CSS + DHT medium, 13.4 nM",62%
same,Percent inhibition of PSA expression,"PSA mRNA; CSS + DHT medium, 40 nM",74%
same,Percent inhibition of PSA expression,"PSA mRNA; complete medium, 1.34 nM",7%
same,Percent inhibition of PSA expression,"PSA mRNA; complete medium, 4.0 nM",19%
same,Percent inhibition of PSA expression,"PSA mRNA; complete medium, 13.4 nM",40%
same,Percent inhibition of PSA expression,"PSA mRNA; complete medium, 40 nM",52%
same,Percent inhibition of TMPRSS2 expression,"TMPRSS2 mRNA [2]; CSS + DHT medium, 1.34 nM",6%
same,Percent inhibition of TMPRSS2 expression,"TMPRSS2 mRNA [2]; CSS + DHT medium, 4.0 nM",19%
same,Percent inhibition of TMPRSS2 expression,"TMPRSS2 mRNA [2]; CSS + DHT medium, 13.4 nM",40%
same,Percent inhibition of TMPRSS2 expression,"TMPRSS2 mRNA [2]; CSS + DHT medium, 40 nM",54%
same,Percent inhibition of TMPRSS2 expression,"TMPRSS2 mRNA [2]; complete medium, 1.34 nM",0%
same,Percent inhibition of TMPRSS2 expression,"TMPRSS2 mRNA [2]; complete medium, 4.0 nM",0%
same,Percent inhibition of TMPRSS2 expression,"TMPRSS2 mRNA [2]; complete medium, 13.4 nM",0%
same,Percent inhibition of TMPRSS2 expression,"TMPRSS2 mRNA [2]; complete medium, 40 nM",36%
same,AR mRNA levels in LMR20 cells,AR mRNA,"reduced AR mRNA levels in LMR20 cells, treated with or without either AR agonist, in a dose dependent manner relative to the baseline"
same,Percent inhibition of TMPRSS2 expression,"TMPRSS2 mRNA [3]; CSS + DHT medium, 1.34 nM",27%
same,Percent inhibition of TMPRSS2 expression,"TMPRSS2 mRNA [3]; CSS + DHT medium, 4.0 nM",50%
same,Percent inhibition of TMPRSS2 expression,"TMPRSS2 mRNA [3]; CSS + DHT medium, 13.4 nM",75%
same,Percent inhibition of TMPRSS2 expression,"TMPRSS2 mRNA [3]; complete medium, 1.34 nM",0%
same,Percent inhibition of TMPRSS2 expression,"TMPRSS2 mRNA [3]; complete medium, 4.0 nM",13%
same,Percent inhibition of TMPRSS2 expression,"TMPRSS2 mRNA [3]; complete medium, 13.4 nM",21%
same,Percent inhibition of TMPRSS2 expression,"TMPRSS2 mRNA [3]; complete medium, 40 nM",36%
